“Also recorded” adds a separate entry of the source. Read-outs that look alike come from different tables or passages of the source.
Assays:
AquaOBP4 = assay: Fluorescence competitive binding assay with 1-NPN reporter; set-up: species or system Ambrostoma quadriimpressum; conditions: for binding to AquaOBP4 (1-NPN displacement): first-round screening
Excerpt: Binding affinity was primarily tested with a panel of 40 A. quadriimpressum habitat-related compounds, most of which are abundantly distributed in elms and A. quadriimpressum. Additionally, one newly identified repellent, cinnamaldehyde, was included[25],[27],[28]. After the molecular model of AquaOBP4 was established, we selected two additional compounds, which also came from elms and A. quadriimpressum, for model validation. All of the compounds were purchased from Sigma-Aldrich (Millipore Sigma, USA) with purities of greater than 95%. The CAS numbers, structures and sources of the tested compounds are listed in Table 2, and detailed information (including content) for each odorant is provided in Table S1.
N-phenyl-1-naphthylamine (1-NPN) was used as a reporter to measure the affinity of the fluorescent 1-NPN ligand to proteins. The fluorescence spectra were recorded using a Fluoromax-4 spectrofluorometer (HORIBA Jobin Yvon, New York, USA) with 2 µM protein in 50 mM ammonium acetate (pH 7.2) at room temperature; the compounds and 1-NPN were dissolved in high-performance liquid chromatography (HPLC)-grade methanol at a concentration of 1 mM. Parameter selection was such that the slit widths for both excitation and emission were 10 nm. The reporter was excited at 337 nm, and the emission spectra were recorded between 380 and 500 nm. The AquaOBP4 saturation curve was tested using 1-NPN at 2 to 14 µM, and the affinities of the compounds were estimated using 2 µM 1-NPN and 10 to 70 µM concentrations of the compounds. The curves were then linearized using Scatchard plots. IC50 and Kd values were analyzed using Prism 6 (GraphPad Software, USA), and Ki values were calculated using the following equation: Ki = [IC50]/1 + [1-NPN]/Kd, where [1-NPN] is the concentration of dissociative 1-NPN and Kd is the dissociation constant of the protein/1-NPN complex. To investigate the response of AquaOBP4 at low pH, the fluorescence binding affinity between AquaOBP4 and one of the best ligands was measured at pH 5. Then, 50 mM ammonium acetate (pH 5) was used as a buffer to dissolve the AquaOBP4 protein.

[1] = tested on: antennae of A. quadriimpressum; assay: Electroantennogram (EAG) responses of binding odorants; assay type: in vivo, Ambrostoma quadriimpressum; conditions: 0.1, 1 and 10 µg/µl in paraffin oil; normalized to negative control
A. quadriimpressum = tested on: A. quadriimpressum; set-up: method as in doi:10.1653/024.099.0212; conditions: cited from earlier work
[2] = tested on: antennae of A. quadriimpressum; set-up: method as in previous results of the authors; conditions: ref previous results of the authors; cited from earlier work
[3] = tested on: A. quadriimpressum adults; assay: Y-tube olfactometer behavioral test; assay type: in vivo, Ambrostoma quadriimpressum; conditions: 10 µg/µl in paraffin oil (methods), 1 µg/µl; vs paraffin oil control; N = 90
Experimental: The responses of A. quadriimpressum to the three best ligands were assessed in a Y-tube olfactometer. The compounds were tested at an intermediate concentration of 10 µg/µl in paraffin oil. In these assays, 20 μl of the odorant was applied to a piece of filter paper (25 × 25 mm), which was then placed in one of the olfactometer arms. In the other arm, 20 μl of paraffin oil was used as a negative control. Thirty beetles (15 males and 15 females) were individually tested, with three replicates for each individual (for a total of 90 replicates). A red light source was used in the darkroom to avoid light interference. For the Y-tube (1-cm diameter, 100-cm base length, 10-cm arm length), one small hole was cut into the base of the Y-tube at 10 cm for releasing beetles. The source of the air that passed through the Y-tube was a pressurized tank of pure air. The air was first filtered through active carbon and then humidified by bubbling it through a bottle filled with double-distilled (dd) water before entering the Y-tube. The air flow traveled through both arms of the Y-tube olfactometer at a speed of 300 ml/min. Each individual beetle was placed at the entrance of the olfactometer (Fig. 1), and their “choice” was recorded when the beetle entered an arm and remained there for 30 s. If an insect made no choice within 3 min, the result was recorded as “no-choice”. […]

[4] = Table 3, pH 7.2, 2 µM 1-NPN, 2 µM protein, compounds 10 to 70 µM
[5] = Table 3 and text, pH 7.2, 2 µM 1-NPN, calculated from IC50

In the case of c1ccc(Nc2cccc3ccccc23)cc1 [1-NPN, N-phenyl-1-naphthylamine, reference compound], the Kd (AquaOBP4; pH 5) is reported as 1.49 ± 0.08 µM and the Kd (AquaOBP4; pH 7.2, 2 µM protein, 1-NPN 2 to 14 µM) is reported as 2.27 ± 0.16 µM.

For CC(=O)Oc1ccccc1 [Acetic acid, Phenyl ester], the “binding to AquaOBP4 (1-NPN displacement)” value (AquaOBP4; pH 7.2) was “did not bind”.

With CCCCCCCCOC(=O)c1ccccc1C(=O)OCCCC [Butyl octyl phthalate] the EAG response [1] was “strong EAG responses”, the Ki (AquaOBP4; Figure 6 legend, 1-NPN 2 μM) was 12.7 µM and the pKi (AquaOBP4; Table 4) was 4.90. It also gave an IC50 (AquaOBP4; Table 4, pH 7.2, 2 µM 1-NPN) of 23.9 µM, a Ki (AquaOBP4; Table 4, pH 7.2, 2 µM 1-NPN) of 12.7 µM and a Ki (AquaOBP4; pH 5) of 16.8 µM.

For O=C/C=C/c1ccccc1 [Cinnamaldehyde], the “repellent / antifeedant effect against A. quadriimpressum” value (A. quadriimpressum) is given as “strong repellent”, the “repellent / antifeedant effect against A. quadriimpressum” value (A. quadriimpressum; listed as cinnamaldehyde) is given as “antifeedant” and the “physiological response on the antennae of A. quadriimpressum” value [2] is given as “strong physiological response”. It also gave an IC50 (AquaOBP4; [4]) of 149 µM, a Ki (AquaOBP4; [5]) of 79.3 µM and a pKi (AquaOBP4; Table 4) of 4.10. It also gave an IC50 (AquaOBP4; Table 4, pH 7.2, 2 µM 1-NPN) of 149 µM and a Ki (AquaOBP4; Table 4, pH 7.2, 2 µM 1-NPN) of 79.3 µM.

For CCCCOC(=O)c1ccccc1C(=O)OCCCC [Dibutyl phthalate], the EAG response [1] was “strong EAG responses”, the IC50 (AquaOBP4; [4]) was 45.6 µM and the Ki (AquaOBP4; [5]) was 24.2 µM. The pKi (AquaOBP4; Table 4) was 4.62, the IC50 (AquaOBP4; Table 4, pH 7.2, 2 µM 1-NPN) was 45.6 µM and the “attraction of A. quadriimpressum adults in Y-tube olfactometer” value [3] was “slightly higher attractiveness”.

For CC(C)COC(=O)c1ccccc1C(=O)OCC(C)C [Diisobutyl phthalate], the EAG response [1] was “strong EAG responses”, the IC50 (AquaOBP4; [4]) was 50.4 µM and the Ki (AquaOBP4; [5]) was 26.8 µM. It also gave a pKi (AquaOBP4; Table 4) of 4.57, an IC50 (AquaOBP4; Table 4, pH 7.2, 2 µM 1-NPN) of 50.4 µM and a Ki (AquaOBP4; Table 4, pH 7.2, 2 µM 1-NPN) of 26.8 µM.

In the case of CC/C=C\CCOC(C)=O [Leaf acetate], the “binding to AquaOBP4 (1-NPN displacement)” value (AquaOBP4; pH 7.2) is reported as “no binding”.

With COC(=O)c1ccccc1 [Methyl benzoate] the “binding to AquaOBP4 (1-NPN displacement)” value (AquaOBP4; pH 7.2) was “did not bind; also recorded: no binding”.

In the case of COC(=O)c1ccccc1O [Methyl salicylate], the “binding to AquaOBP4 (1-NPN displacement)” value (AquaOBP4; pH 7.2) is reported as “did not bind”.

In the case of CC/C=C\CCOC(=O)c1ccccc1 [cis-3-Hexenyl benzoate], the IC50 (AquaOBP4; [4]) is reported as 65.8 µM, the Ki (AquaOBP4; [5]) is reported as 35 µM and the pKi (AquaOBP4; Table 4) is reported as 4.46. It also gave an IC50 (AquaOBP4; Table 4, pH 7.2, 2 µM 1-NPN) of 65.8 µM.

In the case of CC(=O)/C=C/C1=C(C)CCCC1(C)C [β-Ionone], the IC50 (AquaOBP4; [4]) is reported as 56.6 µM, the Ki (AquaOBP4; [5]) is reported as 30.1 µM and the pKi (AquaOBP4; Table 4) is reported as 4.52. The IC50 (AquaOBP4; Table 4, pH 7.2, 2 µM 1-NPN) was 56.6 µM.

For Isoeugenol, the pKi (AquaOBP4; Table 4) was 3.77, the IC50 (AquaOBP4; Table 4, pH 7.2, 2 µM 1-NPN) was 321 µM and the Ki (AquaOBP4; Table 4, pH 7.2, 2 µM 1-NPN) was 171 µM.

Source: PMC5684361, “Selectivity and ligand-based molecular modeling of an odorant-binding protein from the leaf beetle Ambrostoma quadriimpressum (Coleoptera: Chrysomelidae) in relation to habitat-related volatiles” (Scientific Reports, 2017)
